Results reported in patent US20240218022A1, “ANTI-VISTA MACROCYCLIC PEPTIDES AND COMPOSITIONS” (BRISTOL-MYERS SQUIBB COMPANY, priority 2022, published 2024).
Starred links: 1 amine or outer side, 2 acyl side, 3 side chain; linkers in the order of their positions; H or OH if unused. Positions of bridges follow the written chain, without caps; N, C: chain ends. Non-standard residues stand in square brackets, D forms with d. Residues, ends and D or L forms follow the SMILES beside them. Phe(3-Me) = Cc1cccc(C[C@H](N)C(=O)O)c1; 2Nal = N[C@@H](Cc1ccc2ccccc2c1)C(=O)O; βAsp = O=C(O)[C@H](CC(=O)[*:2])N[*:1]; Cit = NC(=O)NCCC[C@H](N)C(=O)O; Ahp(2) = CCCCC[C@H](N)C(=O)O; NMeNle = CCCC[C@H](NC)C(=O)O; Tle = CC(C)(C)[C@H](N)C(=O)O; NHexGly = CCCCCCNCC(=O)O; Nle = CCCC[C@H](N)C(=O)O; Aun = NCCCCCCCCCCC(=O)O; AEEA = NCCOCCOCC(=O)O

Molecular target: T1, mouse VISTA (mVISTA) (Mus musculus, UniProt Q9D659)
T1 construct: expressed in transfected cells; host or cells: Human embryonic kidney 293T cells
T1 sequence (Q9D659 33-308): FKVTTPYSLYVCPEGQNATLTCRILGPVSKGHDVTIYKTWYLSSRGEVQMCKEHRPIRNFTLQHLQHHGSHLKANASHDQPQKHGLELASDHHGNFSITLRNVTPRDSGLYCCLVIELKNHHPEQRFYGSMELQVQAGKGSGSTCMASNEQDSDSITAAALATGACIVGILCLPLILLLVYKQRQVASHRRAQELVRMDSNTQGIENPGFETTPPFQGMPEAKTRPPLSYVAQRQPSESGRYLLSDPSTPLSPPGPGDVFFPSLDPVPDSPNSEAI
Test: Cell-Based Binding High-Content Assay For mVISTA (HC CBA mVISTA)
Conditions: cell-based binding high-content assay, mVISTA; read-out: HC CBA miPr ISTA IC50
In short: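 Read-out: Alexa 647–streptavidin signal imaged on fixed, Hoechst-stained mVISTA-293T cells, with IC50 taken from a four-parameter logistic curve. Compounds competed with 2 nM biotinylated peptide for 30 min at room temperature, tested under both no-wash and wash (1 h compound, media exchange, 1 h) formats.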

Structure (SMILES) | IC50
CCCCCCN1CC(=O)N[C@@H](Cc2ccc(O)cc2)C(=O)N[C@@H](CCCC)C(=O)N[C@@H](CC(N)=O)C(=O)N[C@@H](CCCNC(=N)N)C(=O)N[C@@H](CC(C)C)C(=O)N[C@@H](CCCCC)C(=O)N2CCC[C@H]2C(=O)N[C@@H](C(C)C)C(=O)N[C@@H](CO)C(=O)N[C@H](C(=O)NCC(=O)NCCOCCOCC(=O)N[C@@H](CC(=O)O)C(=O)NCCOCCOCC(=O)NCCCCCCCCCCC(=O)O)CSCC(=O)N[C@@H](Cc2ccc3ccccc3c2)C(=O)N[C@@H](Cc2ccc(O)cc2)C(=O)N[C@@H](CC(=O)O)C1=O [compound 2007] ({CH2CO}-[2Nal]YD[NHexGly]Y[Nle]NRL[Ahp(2)]PVSCG[AEEA]D[AEEA][Aun]-OH; thioether N-14) | 19.6 nM
CCCCCCN1CC(=O)N[C@@H](Cc2ccc(O)cc2)C(=O)N[C@@H](CCCC)C(=O)N[C@@H](CC(N)=O)C(=O)N[C@@H](CCCNC(=N)N)C(=O)N[C@@H](CC(C)C)C(=O)N[C@@H](CCCCC)C(=O)N2CCC[C@H]2C(=O)N[C@@H](C(C)C)C(=O)N[C@@H](CC(=O)O)C(=O)N[C@H](C(=O)NCC(=O)NCCOCCOCC(=O)N[C@@H](CC(=O)O)C(=O)NCCOCCOCC(=O)NCCCCCCCCCCC(=O)O)CSCC(=O)N[C@@H](Cc2cccc(C)c2)C(=O)N[C@@H](Cc2c[nH]c3ccccc23)C(=O)N[C@@H](CC(=O)O)C1=O [compound 2008] ({CH2CO}-[Phe(3-Me)]WD[NHexGly]Y[Nle]NRL[Ahp(2)]PVDCG[AEEA]D[AEEA][Aun]-OH; thioether N-14) | 16.1 nM
CCCCCCN1CC(=O)N[C@@H](Cc2ccc(O)cc2)C(=O)N[C@@H](CC(C)C)C(=O)N[C@@H](CC(N)=O)C(=O)N[C@@H](CCCNC(=N)N)C(=O)N[C@@H](CC(C)C)C(=O)N[C@@H](CCCCC)C(=O)N2CCC[C@H]2C(=O)N[C@@H](C(C)C)C(=O)N[C@@H](C(C)C)C(=O)N[C@H](C(=O)NCC(=O)NCCOCCOCC(=O)N[C@@H](CC(=O)O)C(=O)NCCOCCOCC(=O)NCCCCCCCCCCC(=O)O)CSCC(=O)N[C@@H](Cc2ccccc2)C(=O)N[C@@H](Cc2cccc(C)c2)C(=O)N[C@@H](CC(=O)O)C1=O [compound 2009] ({CH2CO}-F[Phe(3-Me)]D[NHexGly]YLNRL[Ahp(2)]PVVCG[AEEA]D[AEEA][Aun]-OH; thioether N-14) | 38.9 nM
CCCCCCN1CC(=O)N[C@@H](Cc2ccc(O)cc2)C(=O)N[C@@H](CCCC)C(=O)N[C@@H](CC(N)=O)C(=O)N[C@@H](CCCNC(=N)N)C(=O)N(C)[C@@H](CCCC)C(=O)N[C@@H](CCCCC)C(=O)N2CCC[C@H]2C(=O)N[C@@H](C(C)C)C(=O)N[C@@H](CC(=O)O)C(=O)N[C@H](C(=O)NCC(=O)NCCOCCOCC(=O)N[C@@H](CC(=O)O)C(=O)NCCOCCOCC(=O)NCCCCCCCCCCC(=O)O)CSCC(=O)N[C@@H](Cc2ccccc2)C(=O)N[C@@H](Cc2c[nH]c3ccccc23)C(=O)N[C@@H](CC(=O)O)C1=O [compound 2010] ({CH2CO}-FWD[NHexGly]Y[Nle]NR[NMeNle][Ahp(2)]PVDCG[AEEA]D[AEEA][Aun]-OH; thioether N-14) | 15.9 nM
CCCCCCN1CC(=O)N[C@@H](Cc2ccc(O)cc2)C(=O)N[C@@H](CC(C)C)C(=O)N[C@@H](CC(N)=O)C(=O)N[C@@H](CCCNC(=N)N)C(=O)N[C@@H](CC(C)C)C(=O)N[C@@H](CCCCC)C(=O)N2CCC[C@H]2C(=O)N[C@@H](C(C)C)C(=O)N[C@@H](C(C)C)C(=O)N[C@H](C(=O)NCC(=O)NCCOCCOCC(=O)N[C@@H](CC(=O)O)C(=O)NCCOCCOCC(=O)NCCCCCCCCCCC(=O)O)CSCC(=O)N[C@@H](Cc2ccccc2)C(=O)N[C@@H](Cc2ccc(O)cc2)C(=O)N[C@@H](CC(=O)O)C1=O [compound 2012] ({CH2CO}-FYD[NHexGly]YLNRL[Ahp(2)]PVVCG[AEEA]D[AEEA][Aun]-OH; thioether N-14) | 51.3 nM
CCCCCCN1CC(=O)N[C@@H](Cc2ccc(O)cc2)C(=O)N[C@@H](CCCCC)C(=O)NCC(=O)N[C@@H](CCCNC(=N)N)C(=O)N[C@@H](CC(C)C)C(=O)N[C@@H](CCCCC)C(=O)N2CCC[C@H]2C(=O)N[C@@H](C(C)C)C(=O)N[C@@H](CO)C(=O)N[C@H](C(=O)NCC(=O)NCCOCCOCC(=O)N[C@@H](CC(=O)O)C(=O)NCCOCCOCC(=O)NCCCCCCCCCCC(=O)O)CSCC(=O)N[C@@H](Cc2ccccc2)C(=O)N[C@@H](Cc2ccc(O)cc2)C(=O)N[C@@H](CC(=O)O)C1=O [compound 2013] ({CH2CO}-FYD[NHexGly]Y[Ahp(2)]GRL[Ahp(2)]PVSCG[AEEA]D[AEEA][Aun]-OH; thioether N-14) | 25.5 nM
CCCCCCN1CC(=O)N[C@@H](Cc2ccc(O)cc2)C(=O)N[C@@H](CCCC)C(=O)NCC(=O)N[C@@H](CCCNC(=N)N)C(=O)N[C@@H](CC(C)C)C(=O)N[C@@H](CCCCC)C(=O)N2CCC[C@H]2C(=O)N[C@@H](C(C)C)C(=O)N[C@@H](CC(=O)O)C(=O)N[C@H](C(=O)NCC(=O)NCCOCCOCC(=O)N[C@@H](CC(=O)O)C(=O)NCCOCCOCC(=O)NCCCCCCCCCCC(=O)O)CSCC(=O)N[C@@H](Cc2cccc(C)c2)C(=O)N[C@@H](Cc2ccc(O)cc2)C(=O)N[C@@H](CC(=O)O)C1=O [compound 2014] ({CH2CO}-[Phe(3-Me)]YD[NHexGly]Y[Nle]GRL[Ahp(2)]PVDCG[AEEA]D[AEEA][Aun]-OH; thioether N-14) | 16.4 nM

Results, then the compound that gave them:

IC50 | Structure (SMILES)
19 nM | CCCCCCN1CC(=O)N[C@@H](Cc2ccc(O)cc2)C(=O)N[C@@H](CCCC)C(=O)N[C@@H](CC(N)=O)C(=O)N[C@@H](CCCNC(N)=O)C(=O)N[C@@H](CC(C)C)C(=O)N[C@@H](CCCCC)C(=O)N2CCC[C@H]2C(=O)N[C@@H](C(C)C)C(=O)N[C@@H](CO)C(=O)N[C@H](C(=O)NCC(=O)NCCOCCOCC(=O)N[C@@H](CC(=O)O)C(=O)NCCOCCOCC(=O)NCCCCCCCCCCC(=O)O)CSCC(=O)N[C@@H](Cc2ccc3ccccc3c2)C(=O)N[C@@H](Cc2ccc(O)cc2)C(=O)N[C@@H](CC(=O)O)C1=O [compound 2016] ({CH2CO}-[2Nal]YD[NHexGly]Y[Nle]N[Cit]L[Ahp(2)]PVSCG[AEEA]D[AEEA][Aun]-OH; thioether N-14)
20.4 nM | CCCCCCN1CC(=O)N[C@@H](Cc2ccc(O)cc2)C(=O)N[C@@H](CCCC)C(=O)N[C@@H](CC(=O)O)C(=O)N[C@@H](CCCNC(N)=O)C(=O)N[C@@H](CC(C)C)C(=O)N[C@@H](CCCCC)C(=O)N2CCC[C@H]2C(=O)N[C@@H](C(C)C)C(=O)N[C@@H](CC(N)=O)C(=O)N[C@H](C(=O)NCC(=O)NCCOCCOCC(=O)N[C@@H](CC(=O)O)C(=O)NCCOCCOCC(=O)NCCCCCCCCCCC(=O)O)CSCC(=O)N[C@@H](Cc2ccccc2)C(=O)N[C@@H](Cc2ccc(O)cc2)C(=O)N[C@@H](CC(=O)O)C1=O [compound 2018] ({CH2CO}-FYD[NHexGly]Y[Nle]D[Cit]L[Ahp(2)]PVNCG[AEEA]D[AEEA][Aun]-OH; thioether N-14)
14.4 nM | CCCCCCN1CC(=O)N[C@@H](Cc2ccc(O)cc2)C(=O)N[C@@H](CCCC)C(=O)NCC(=O)N[C@@H](CCCNC(N)=O)C(=O)N[C@@H](CC(C)C)C(=O)N[C@@H](CCCCC)C(=O)N2CCC[C@H]2C(=O)N[C@@H](C(C)C)C(=O)N[C@@H](CC(=O)O)C(=O)N[C@H](C(=O)NCC(=O)NCCOCCOCC(=O)N[C@@H](CC(=O)O)C(=O)NCCOCCOCC(=O)NCCCCCCCCCCC(=O)O)CSCC(=O)N[C@@H](Cc2cccc(C)c2)C(=O)N[C@@H](Cc2ccc(O)cc2)C(=O)N[C@@H](CC(=O)O)C1=O [compound 2019] ({CH2CO}-[Phe(3-Me)]YD[NHexGly]Y[Nle]G[Cit]L[Ahp(2)]PVDCG[AEEA]D[AEEA][Aun]-OH; thioether N-14)
19.5 nM | CCCCCCN1CC(=O)N[C@@H](Cc2ccc(O)cc2)C(=O)N[C@@H](CCCC)C(=O)N[C@@H](CC(N)=O)C(=O)N[C@@H](CCCNC(=N)N)C(=O)N(C)[C@@H](CCCC)C(=O)N[C@@H](CCCCC)C(=O)N2CCC[C@H]2C(=O)N[C@@H](C(C)(C)C)C(=O)N[C@@H](CO)C(=O)N[C@H](C(=O)N[C@@H](CC(=O)NCCOCCOCC(=O)N[C@@H](CC(=O)O)C(=O)NCCOCCOCC(=O)NCCCCCCCCCCC(=O)O)C(=O)O)CSCC(=O)N[C@@H](Cc2ccccc2)C(=O)N[C@@H](Cc2ccc(O)cc2)C(=O)N[C@@H](CC(=O)O)C1=O [compound 2021] ({CH2CO}-FYD[NHexGly]Y[Nle]NR[NMeNle][Ahp(2)]P[Tle]SC[βAsp][AEEA]D[AEEA][Aun]-OH; thioether N-14)
22.7 nM | CCCCCCN1CC(=O)N[C@@H](Cc2ccc(O)cc2)C(=O)N[C@@H](CCCC)C(=O)N[C@@H](CC(N)=O)C(=O)N[C@@H](CCCNC(=N)N)C(=O)N(C)[C@@H](CCCC)C(=O)N[C@@H](CCCCC)C(=O)N2CCC[C@H]2C(=O)N[C@@H](C(C)(C)C)C(=O)N[C@@H](CO)C(=O)N[C@H](C(=O)N[C@@H](CC(=O)NCCOCCOCC(=O)N[C@@H](CC(=O)O)C(=O)NCCOCCOCC(=O)NCCCCCCCCCCC(=O)O)C(=O)O)CSCC(=O)N[C@@H](Cc2ccccc2)C(=O)N[C@@H](Cc2c[nH]c3ccccc23)C(=O)N[C@@H](CC(=O)O)C1=O [compound 2022] ({CH2CO}-FWD[NHexGly]Y[Nle]NR[NMeNle][Ahp(2)]P[Tle]SC[βAsp][AEEA]D[AEEA][Aun]-OH; thioether N-14)
41.2 nM | CCCCCCN1CC(=O)N[C@@H](Cc2ccc(O)cc2)C(=O)N[C@@H](CCCC)C(=O)N[C@@H](CC(N)=O)C(=O)N[C@@H](CCCNC(=N)N)C(=O)N(C)[C@@H](CCCC)C(=O)N[C@@H](CCCCC)C(=O)N2CCC[C@H]2C(=O)N[C@@H](C(C)(C)C)C(=O)N[C@@H](CO)C(=O)N[C@H](C(=O)N[C@@H](CC(=O)NCCOCCOCC(=O)N[C@@H](CC(=O)O)C(=O)NCCOCCOCC(=O)NCCCCCCCCCCC(=O)O)C(=O)O)CSCC(=O)N[C@@H](Cc2ccc3ccccc3c2)C(=O)N[C@@H](Cc2ccc(O)cc2)C(=O)N[C@@H](CC(=O)O)C1=O [compound 2023] ({CH2CO}-[2Nal]YD[NHexGly]Y[Nle]NR[NMeNle][Ahp(2)]P[Tle]SC[βAsp][AEEA]D[AEEA][Aun]-OH; thioether N-14)
